Here are results for 73 compounds from PubChem BioAssay AID1996.

For orientation: kinetic solubility means the concentration staying in solution when a stock, usually in DMSO, is diluted into the medium.

Converted amounts (≈) assume the structure as drawn.

For this series the following is noted: buffer; pH 7.4; 200.0 µM.
The compound `COc1ccc(CNC(=O)C2CCCN2C)cc1OC` (stereo not drawn) came in with a kinetic solubility of 37 µg/mL (≈ 133 µM).
Compound `CCCN1C2CCCC1CC(NC(=O)NC13CC4CC(CC(C4)C1)C3)C2` (stereo not drawn) registered a solubility (kinetic) greater than 53.9 µg/mL.
Take `OC(c1nc2ccccc2[nH]1)C(O)C(O)C(O)c1nc2ccccc2[nH]1` (stereo not drawn): the solubility (kinetic) was 1.4 µg/mL (≈ 3.95 µM).
For `CC(=O)Nc1ccc(S(=O)(=O)N(C)c2ccc(OCCOc3ccccc3F)cc2)cc1` the value was 6.5 µg/mL (≈ 14.2 µM).
In the case of `Cc1cccc(OCC2CCCN(Cc3nc(C4CC4)no3)C2)c1` (stereo not drawn), the kinetic solubility is 12.8 µg/mL (≈ 39.1 µM).
Regarding `CC(=O)c1c(C)[nH]c(C(=O)Nc2cccc(C#N)c2)c1C`, the solubility (kinetic) was 10.8 µg/mL (≈ 38.4 µM).
On to `CC(C)C(C(=O)Nc1ccncc1)c1ccc(Cl)cc1` (stereo not drawn), for which the solubility (kinetic) was greater than 43.3 µg/mL.
`C=CCn1cccc(C(=O)Nc2ccc(C)c(C)c2)c1=O` yielded a kinetic solubility of 33.4 µg/mL (≈ 118 µM).
On to `O=C1CN(c2ccc(F)cc2)C(=S)N1c1ccccc1`, for which the solubility (kinetic) was found to be 8.5 µg/mL (≈ 29.7 µM).
`O=C(c1cccc(Cl)c1)N1CCN(Cc2ccccc2)CC1` gave a solubility (kinetic) of 47.1 µg/mL (≈ 150 µM).
On to `CC1CCCCC1NC(=O)CCCN1C(=O)c2ccccc2C1=O` (stereo not drawn), for which the solubility (kinetic) amounted to 15.9 µg/mL (≈ 48.4 µM).
Regarding `COc1ccc(NC(=O)C(c2ccc(Cl)cc2)C(C)C)cn1` (stereo not drawn), the kinetic solubility amounted to 13.5 µg/mL (≈ 42.3 µM).
Consider `CCOC(=O)c1c(C)[nH]c(C(=O)OCc2ccc(F)cc2)c1C`, for which the solubility (kinetic) was 2 µg/mL (≈ 6.26 µM).
As for `COCCNc1nnc(Cc2ccc(OC)c(OC)c2)c(=O)[nH]1`, the solubility (kinetic) was greater than 48.1 µg/mL.
`Cc1cc(C(=O)NC2CCCCCC2)c2ccccc2n1` came in with a solubility (kinetic) of 24.2 µg/mL (≈ 85.7 µM).
`Cn1c2c(c3cc([N+](=O)[O-])ccc31)CCCC2` came in with a solubility (kinetic) of less than 0.2 µg/mL.
Consider `Cc1cccc(NC(=O)CCN2CCC(C)CC2)c1`, for which the kinetic solubility was greater than 39.1 µg/mL.
`Cc1cc(C)c(C)c(OCCNCc2ccccc2)c1.O=C(O)C(=O)O` showed a solubility (kinetic) greater than 53.9 µg/mL.
For `c1ccc2c(Nc3nc(-c4ccncc4)nc4ccccc34)cccc2c1`, the kinetic solubility is less than 0.2 µg/mL.
As for `COc1ccc(NC(=O)c2ccc3c(c2)OCCO3)cc1OC`, the solubility (kinetic) stood at 10.3 µg/mL (≈ 32.7 µM).
As for `COc1ccc(/C=C/C(=O)OC(C)CN2CCCCC2)cc1.Cl` (stereo not drawn), the kinetic solubility was determined as 49.4 µg/mL.
For `CC(=O)CC1(OC(C)=O)C(=O)N(C)c2ccccc21` (stereo not drawn), the kinetic solubility was greater than 39.2 µg/mL.
In turn, `CN(CC(=O)Nc1cccc(C(F)(F)F)c1)Cc1ccccc1` came in with a solubility (kinetic) of 20.8 µg/mL (≈ 64.5 µM).
`COc1ccc(C(=O)O)cc1S(=O)(=O)NCc1cccnc1`: the solubility (kinetic) is greater than 48.4 µg/mL.
Compound `O=C(O)C1CC(O)CN1C(=S)Nc1ccccc1` (stereo not drawn) registered a solubility (kinetic) greater than 39.9 µg/mL.
As to `CC1CC(C)CN(C(=O)C(C)N2CCN(S(=O)(=O)c3ccccc3F)CC2)C1` (stereo not drawn), the kinetic solubility turned out to be 51.7 µg/mL (≈ 126 µM).
For `O=c1[nH]cccc1-c1nc2ccccc2n1Cc1cccc(Cl)c1` the value was 1.4 µg/mL (≈ 4.17 µM).
Compound `CN1CCN(C(=O)c2ccc(-c3ccc(Br)cc3)o2)CC1` had a solubility (kinetic) greater than 52.4 µg/mL.
The same measure for `COC(=O)c1scc(C)c1NC(=O)c1ccccc1F`: greater than 44 µg/mL; for `O=C1c2cccc3cccc(c23)N1Cc1cccc(F)c1`: 2.6 µg/mL (≈ 9.38 µM); for `C=CCN=C1S/C(=C/c2cccc([N+](=O)[O-])c2)C(=O)N1CC=C`: 1.5 µg/mL (≈ 4.55 µM).
`O=C(NCc1ccc2c(c1)OCO2)c1ccc(Br)o1` gave a kinetic solubility greater than 48.6 µg/mL.
The same measure for `Cc1nc2ccccc2c(=O)n1-c1ccc(Cl)cc1Cl`: greater than 45.8 µg/mL; for `COc1ccccc1C1CCN(c2ccc(CO)cc2[N+](=O)[O-])CC1`: 7.8 µg/mL (≈ 22.8 µM).
Compound `C=CCn1c(SCC(=O)C23CC4CC(CC(C4)C2)C3)nc(O)cc1=O` yielded a kinetic solubility greater than 54.1 µg/mL.
Regarding `CSc1ncc(C(=O)Nc2ccccc2F)c(-c2ccccc2)n1`, the kinetic solubility came to 1.3 µg/mL (≈ 3.83 µM).
The same measure for `O=C(Nc1cc2c3c(c1)CC(=O)N3CCC2)C1CCCCC1`: greater than 44.8 µg/mL; for `Cc1nc(-c2cccc(Br)c2)ccc1C(=O)O`: 43.2 µg/mL (≈ 148 µM); for `COc1cc(C(=O)OC2CCOC2=O)c([N+](=O)[O-])cc1OC` (stereo not drawn): greater than 46.7 µg/mL.
With `COc1ccc(Cn2cc([N+](=O)[O-])nc2C)cc1[N+](=O)[O-]`, the kinetic solubility is greater than 43.8 µg/mL.
`Cc1cc(NS(=O)(=O)c2c(C)c(C)cc(C)c2C)no1` returned a solubility (kinetic) greater than 44.2 µg/mL.
Consider `O=C(Nc1ccc(NC(=O)C2CC2)cn1)c1ccccc1`, for which the solubility (kinetic) was 41.6 µg/mL (≈ 148 µM).
On to `CC(C)CNC(=O)c1cc(-c2ccc3c(c2)OCO3)on1`, for which the solubility (kinetic) came out at 0.5 µg/mL (≈ 1.73 µM).
In turn, `O=C(NCc1ccc(Cl)cc1)c1cc(=O)[nH]c2ccccc12` yielded a solubility (kinetic) of 1.6 µg/mL (≈ 5.12 µM).
In turn, `Cc1ccc2c(Cl)cc(Cl)c(OCC(=O)O)c2n1` gave a solubility (kinetic) greater than 42.9 µg/mL.
`CCCc1ccc2oc(C(=O)N3CCC[C@H]3CO)c(C)c2c1` returned a solubility (kinetic) of 41.8 µg/mL (≈ 139 µM).
For the compound `CCOC(=O)c1ccc(NC(=S)N2CCN(CCO)CC2)cc1`, the kinetic solubility is greater than 50.6 µg/mL.
`Cc1ncc(CSc2ccc(Cl)cc2)c(CO)c1O` returned a solubility (kinetic) of 14.1 µg/mL (≈ 47.7 µM).
For `CC(C)CNC(=O)COC(=O)Cc1ccc(Cl)cc1` the value was 36.1 µg/mL (≈ 127 µM); for `COc1ccc(CN(C)C(=O)COC(=O)c2cnc(Cl)c(Cl)c2)cc1`, 53.1 µg/mL (≈ 139 µM).
`COc1ccc(NC(=O)NCCc2ccc(Cl)cc2)cc1OC` returned a kinetic solubility of less than 0.4 µg/mL.
Turning to `O=C(CCCN1CCC(O)(c2ccc(Cl)cc2)CC1)c1ccc(F)cc1`, the solubility (kinetic) amounted to 23.5 µg/mL (≈ 62.5 µM).
Compound `CN(CC(=O)NC1CCCC1)S(=O)(=O)c1cccc(Cl)c1` showed a kinetic solubility of 7.6 µg/mL (≈ 23 µM).
For `COc1cccc(C(=O)Nc2cc(Cl)c(O)c(Cl)c2)c1` the value was 15 µg/mL (≈ 48.1 µM); for `CCCN(CC(=O)Nc1ccc(F)c(F)c1F)C(=O)c1ccc2c(c1)NC(=O)CS2`, 11.2 µg/mL (≈ 25.6 µM); for `CCCCCCCCCCCCCCCC[N+](C)(C)CC.[Br-]`, 34.5 µg/mL.
For the compound `CS(=O)(=O)N(CC(=O)N1CCOCC1)c1ccc(Cl)cc1`, the solubility (kinetic) is greater than 49.9 µg/mL.
`CCOc1ccccc1NC(=O)C1C2CCC(O2)C1C(=O)O` (stereo not drawn) showed a kinetic solubility greater than 45.8 µg/mL.
For `COc1ccc(S(=O)(=O)Nc2ccc(Nc3ccccc3)cc2)cc1` the value was 4.7 µg/mL (≈ 13.3 µM); for `Cc1cc(OCC(O)CNC(C)c2ccccc2)ccc1C(C)C.Cl` (stereo not drawn), 45.3 µg/mL.
`COc1ccc(C(=O)NC(C)CCc2ccccc2)cc1` (stereo not drawn) returned a kinetic solubility of 41.9 µg/mL (≈ 148 µM).
For the compound `CSc1ncccc1C(=O)Nc1cccc(S(=O)(=O)N2CCCC2)c1`, the solubility (kinetic) was greater than 56.6 µg/mL.
The same measure for `O=C(COC(=O)/C=C/c1ccc(Cl)cc1)NC1CCCC1`: 3.5 µg/mL (≈ 11.4 µM); for `CSc1cccc(NC(=O)C2(S(=O)(=O)c3ccc(C)cc3)CC2)c1`: 19.9 µg/mL (≈ 55.1 µM).
The same measure for `Cc1cccc(C(=O)O/N=C/c2ccc(Br)cc2)c1`: less than 0.7 µg/mL; for `O=C(NCCc1cccc(Cl)c1)c1cccs1`: greater than 39.9 µg/mL.
The compound `Cc1cc([N+](=O)[O-])ccc1NC(=S)NC1CCCC1` yielded a solubility (kinetic) of 21.9 µg/mL (≈ 78.4 µM).
With `O=C1NCC(COc2ccc(Cl)cc2)O1` (stereo not drawn), the kinetic solubility was greater than 34.1 µg/mL.
The compound `O=C(c1ccco1)N1CCN(C(=S)NC2CC3CCC2C3)CC1` (stereo not drawn) showed a kinetic solubility of 46.8 µg/mL (≈ 140 µM).
The compound `Cc1ccc(N2C(=O)c3ccccc3C2C(=O)c2ccc(C)c(C)c2O)cc1` (stereo not drawn) had a kinetic solubility of 10.6 µg/mL (≈ 28.5 µM).
As to `Cc1ccc(S(=O)(=O)c2ncccc2[N+](=O)[O-])cc1`, the solubility (kinetic) was determined as 40.9 µg/mL (≈ 147 µM).
For `Cc1ccc(C(=O)Nc2sc3c(c2C(=O)O)CCC(C)C3)o1` (stereo not drawn) the value was greater than 47.9 µg/mL.
Turning to `CCOC(=O)c1sc(NC(=O)C2=COCCO2)c(C#N)c1C`, the kinetic solubility was 13.5 µg/mL (≈ 41.9 µM).
